Data: ChEMBL document CHEMBL1125048, “Affinity of 2-(tetrahydroisoquinolin-2-ylmethyl)- and 2-(isoindolin-2-ylmethyl)imidazolines for alpha-adrenoceptors. Differential affinity of imidazolines for the [3H]idazoxan-labeled alpha 2-adrenoceptor vs the [3H]yohimbine-labeled site” (J Med Chem, 1990)

Assays:
[1] = molecular target: T1, Adrenergic receptor alpha-2 (Rattus norvegicus, UniProt P22086+P19328+P22909); experiment: Binding affinity to alpha-2 adrenergic receptor of rat cerebral cortex assayed using [3H]yohimbine as radioligand; type: tissue-based
T1 sequence (P22086 whole entry): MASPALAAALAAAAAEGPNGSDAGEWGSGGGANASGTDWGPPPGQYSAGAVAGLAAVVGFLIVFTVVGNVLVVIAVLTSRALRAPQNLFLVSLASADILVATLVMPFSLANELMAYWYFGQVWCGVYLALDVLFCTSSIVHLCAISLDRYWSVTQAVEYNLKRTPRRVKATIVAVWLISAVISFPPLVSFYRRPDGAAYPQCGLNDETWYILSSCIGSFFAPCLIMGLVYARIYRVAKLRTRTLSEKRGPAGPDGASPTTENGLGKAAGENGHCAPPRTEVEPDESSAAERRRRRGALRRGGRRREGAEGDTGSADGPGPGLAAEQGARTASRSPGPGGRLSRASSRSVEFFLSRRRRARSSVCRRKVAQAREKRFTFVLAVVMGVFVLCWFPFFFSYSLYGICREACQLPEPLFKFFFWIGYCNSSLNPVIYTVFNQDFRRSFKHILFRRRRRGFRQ
T1 sequence (P19328 whole entry): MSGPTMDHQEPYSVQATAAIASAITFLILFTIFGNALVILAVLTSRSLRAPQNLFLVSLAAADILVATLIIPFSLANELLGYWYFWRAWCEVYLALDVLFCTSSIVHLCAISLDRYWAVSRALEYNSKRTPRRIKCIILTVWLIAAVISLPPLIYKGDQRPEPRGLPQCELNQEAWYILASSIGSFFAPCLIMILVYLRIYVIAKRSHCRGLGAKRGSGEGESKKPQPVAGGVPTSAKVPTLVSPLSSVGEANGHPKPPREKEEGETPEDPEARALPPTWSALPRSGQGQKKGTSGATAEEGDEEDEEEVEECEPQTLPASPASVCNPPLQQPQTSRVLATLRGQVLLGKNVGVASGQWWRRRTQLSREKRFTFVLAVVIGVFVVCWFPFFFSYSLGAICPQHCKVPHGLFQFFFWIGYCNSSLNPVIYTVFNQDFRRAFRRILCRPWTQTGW
T1 sequence (P22909 whole entry): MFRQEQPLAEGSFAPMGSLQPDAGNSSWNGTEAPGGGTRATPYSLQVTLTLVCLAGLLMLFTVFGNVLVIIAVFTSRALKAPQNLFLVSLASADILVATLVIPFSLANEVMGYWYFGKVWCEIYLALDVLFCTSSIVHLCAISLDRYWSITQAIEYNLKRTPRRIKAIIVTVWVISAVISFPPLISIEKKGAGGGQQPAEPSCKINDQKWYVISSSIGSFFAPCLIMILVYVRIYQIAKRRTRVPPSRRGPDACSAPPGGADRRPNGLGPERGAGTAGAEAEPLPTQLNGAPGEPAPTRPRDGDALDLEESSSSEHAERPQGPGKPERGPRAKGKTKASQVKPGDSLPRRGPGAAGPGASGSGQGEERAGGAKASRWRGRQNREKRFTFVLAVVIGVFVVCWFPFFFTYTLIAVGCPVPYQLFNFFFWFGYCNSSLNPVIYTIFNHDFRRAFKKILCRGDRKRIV

[2] = molecular target: T1, Adrenergic receptor alpha-2; experiment: Binding affinity to the alpha-2 adrenergic receptor of rat cerebral cortex assayed using [3H]idazoxan as radioligand; type: tissue-based
[3] = molecular target: T2, Adrenergic receptor alpha-1 (Rattus norvegicus, UniProt P15823+P23944+P43140); experiment: Binding affinity determined to alpha-1 adrenergic receptor of rat cerebral cortex using [3H]prazosin as radioligand; type: tissue-based
T2 sequence (P15823 whole entry): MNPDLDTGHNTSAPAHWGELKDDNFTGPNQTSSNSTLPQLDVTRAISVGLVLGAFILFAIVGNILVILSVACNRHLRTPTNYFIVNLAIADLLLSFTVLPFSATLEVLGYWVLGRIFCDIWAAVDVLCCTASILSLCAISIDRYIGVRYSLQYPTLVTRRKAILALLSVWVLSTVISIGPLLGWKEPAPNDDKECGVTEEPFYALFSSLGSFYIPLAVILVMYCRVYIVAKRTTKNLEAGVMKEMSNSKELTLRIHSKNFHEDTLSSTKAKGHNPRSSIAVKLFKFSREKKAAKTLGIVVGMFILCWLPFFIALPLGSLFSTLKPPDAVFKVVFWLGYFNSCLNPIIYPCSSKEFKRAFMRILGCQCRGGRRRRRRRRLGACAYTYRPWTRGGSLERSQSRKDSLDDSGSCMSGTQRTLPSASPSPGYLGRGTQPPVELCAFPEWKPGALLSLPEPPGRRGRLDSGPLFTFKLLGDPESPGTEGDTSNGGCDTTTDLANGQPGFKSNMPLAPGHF
T2 sequence (P23944 whole entry): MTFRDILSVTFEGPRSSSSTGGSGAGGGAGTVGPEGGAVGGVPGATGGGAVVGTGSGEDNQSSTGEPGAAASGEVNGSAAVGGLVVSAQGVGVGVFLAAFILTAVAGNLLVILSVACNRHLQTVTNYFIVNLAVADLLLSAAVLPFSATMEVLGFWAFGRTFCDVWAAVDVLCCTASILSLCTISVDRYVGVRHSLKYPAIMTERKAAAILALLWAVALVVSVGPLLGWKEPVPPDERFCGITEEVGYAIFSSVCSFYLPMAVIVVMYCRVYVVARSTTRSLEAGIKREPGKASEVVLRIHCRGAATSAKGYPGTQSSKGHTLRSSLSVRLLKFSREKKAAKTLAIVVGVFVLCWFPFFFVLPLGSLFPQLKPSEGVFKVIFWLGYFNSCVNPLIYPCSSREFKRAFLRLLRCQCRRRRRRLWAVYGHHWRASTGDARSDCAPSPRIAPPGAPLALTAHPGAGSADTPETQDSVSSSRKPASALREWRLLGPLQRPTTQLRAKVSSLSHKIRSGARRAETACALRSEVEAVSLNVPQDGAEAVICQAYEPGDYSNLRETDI
T2 sequence (P43140 whole entry): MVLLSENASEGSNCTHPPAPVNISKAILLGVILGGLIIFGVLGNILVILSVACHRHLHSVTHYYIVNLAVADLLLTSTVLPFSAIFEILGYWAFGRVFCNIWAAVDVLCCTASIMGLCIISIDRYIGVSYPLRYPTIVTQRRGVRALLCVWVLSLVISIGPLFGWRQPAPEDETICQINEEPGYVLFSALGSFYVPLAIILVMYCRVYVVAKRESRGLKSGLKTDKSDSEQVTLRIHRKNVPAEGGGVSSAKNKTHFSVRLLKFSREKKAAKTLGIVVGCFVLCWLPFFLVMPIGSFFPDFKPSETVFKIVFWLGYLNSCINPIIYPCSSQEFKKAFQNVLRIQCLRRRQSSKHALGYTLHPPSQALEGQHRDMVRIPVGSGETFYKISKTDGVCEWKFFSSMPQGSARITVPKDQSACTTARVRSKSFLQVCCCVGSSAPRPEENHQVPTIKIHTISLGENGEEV

[4] = molecular target: T1, Adrenergic receptor alpha-2; experiment: Binding affinity was determined against alpha-2 adrenergic receptor of rat cerebral cortex using [3H]idazoxan as radioligand; type: tissue-based
[5] = molecular target: T3, Adrenergic receptor alpha-2 (Rattus norvegicus) (UniProt P22086+P19328+P22909); experiment: Selectivity ratio is the antilog of the [3H]-yohimbine pKi minus the [3H]prazosin pKi; type: protein assay
[6] = molecular target: T1, Adrenergic receptor alpha-2; experiment: Binding affinity was determined against alpha-2 adrenergic receptor of rat cerebral cortex using [3H]yohimbine as radioligand; type: tissue-based
[7] = molecular target: T3, Adrenergic receptor alpha-2 (Rattus norvegicus); experiment: Antilog of the [3H]-idazoxan pKi minus the [3H]yohimbine pKi was determined; type: protein assay

SMILES | Log Ki [1] | Log Ki [2] | Log Ki [3] | Log Ki [4] | Selectivity ratio [5] | Log Ki [6] | Ratio [7]
C=CCC1c2ccccc2CCN1CC1=NCCN1.Cl.Cl (stereo not drawn) | -5.97 | -6.41 | < -5 | – | – | – | –
Cl.Cl.Fc1cccc2c1CN(CC1=NCCN1)CC2 | -7.25 | -8.27 | -5.5 | – | – | – | –
COc1cc2c(c(OC)c1)CN(CC1=NCCN1)CC2.Cl.Cl | -6.29 | -7.2 | < -5 | – | – | – | –
Cl.Cl.Clc1cccc2c1CN(CC1=NCCN1)C2 | -7.71 | -8.38 | -6.05 | – | – | – | –
Cl.Cl.Clc1cccc2c1CCN(CC1=NCCN1)C2 | -7.65 | -7.8 | -5.68 | – | – | – | –
Cl.Cl.Fc1cccc2c1CCN(CC1=NCCN1)C2 | -7.48 | -8.39 | -5.55 | – | – | – | –
COc1ccc(OC)c2c1CCN(CC1=NCCN1)C2.Cl.Cl | -7.51 | -7.8 | -4.8 | – | – | – | –
Cl.Cl.O=[N+]([O-])c1cccc2c1CCN(CC1=NCCN1)C2 | -6.13 | -7.14 | < -5 | – | – | – | –
Cl.Cl.c1ccc2c(c1)CN(CC1=NCCN1)C2 | – | – | -5.43 | -8.07 | 30 | -6.91 | 14
CC1(C)c2ccccc2CCN1CC1=NCCN1.Cl.Cl | -6 | -6.68 | < -5 | – | – | – | –
Cl.Cl.Clc1ccc2c(c1Cl)CCN(CC1=NCCN1)C2 | -6.42 | -7.67 | < -5 | – | – | – | –
COc1cc2c(cc1OC)CN(CC1=NCCN1)CC2.Cl.Cl | -5.87 | -6.13 | < -5 | – | – | – | –
Cl.Cl.Clc1ccc2c(c1Cl)CN(CC1=NCCN1)CC2 | -6.52 | -7.68 | < -5 | – | – | – | –
CC1c2cccc(Cl)c2CCN1CC1=NCCN1.Cl.Cl (stereo not drawn) | -6.74 | -7.62 | -5.2 | – | – | – | –
Cl.Cl.Clc1cccc2c1CN(CC1=NCCN1)CC2 | – | – | -5.8 | -8.23 | 7 | -6.67 | 36
Cl.Cl.Clc1ccc(Cl)c2c1CCN(CC1=NCCN1)C2 | -7.14 | -8.12 | -5.5 | – | – | – | –
COc1ccc2c(c1OC)CCN(CC1=NCCN1)C2.Cl.Cl | – | – | < -5 | -6.24 | 28 | -6.44 | 0.6
CC1Cc2ccccc2CN1CC1=NCCN1.Cl.Cl (stereo not drawn) | -6.9 | -7.38 | < -5 | – | – | – | –
CC1c2ccccc2CCN1CC1=NCCN1.Cl.Cl (stereo not drawn) | -7.19 | -7.32 | -5.14 | – | – | – | –
CCC1c2ccccc2CCN1CC1=NCCN1.Cl.Cl (stereo not drawn) | -6.16 | -6.31 | < -5 | – | – | – | –
Cl.Cl.c1ccc2c(c1)CCN(CC1=NCCN1)C2 | -6.32 | -7.77 | -5.67 | – | – | – | –
Cl.Nc1cccc2c1CCN(CC1=NCCN1)C2 | -6.17 | -6.99 | < -5 | – | – | – | –
Cc1cccc2c1CCN(CC1=NCCN1)C2.Cl.Cl | -6.57 | -7.38 | -5.26 | – | – | – | –
Cl.Cl.Clc1ccc2c(c1)CCN(CC1=NCCN1)C2 | – | – | < -5 | -6.83 | 15 | -6.18 | 4
COc1ccc(OC)c2c1CCN(CC1=NCCN1)C2C.Cl.Cl (stereo not drawn) | – | – | -5.19 | -7.02 | 332 | -7.71 | 0.2
COc1cccc2c1CCN(CC1=NCCN1)C2.Cl.Cl | -7.07 | -8 | -4.72 | – | – | – | –
